Test results: BigSolDB 2.1

O=P(O)(O)c1ccccc1
Details	solubility (mole fraction)
in 1,4-dioxane, 288.15 K	0.186
in 1,4-dioxane, 293.15 K	0.208
in 1,4-dioxane, 298.15 K	0.224
in 1,4-dioxane, 303.15 K	0.243
in 1,4-dioxane, 308.15 K	0.264
in 1,4-dioxane, 313.15 K	0.286
in 1,4-dioxane, 318.15 K	0.307
in 1,4-dioxane, 323.15 K	0.336
in 1,4-dioxane, 328.15 K	0.36
in 1,4-dioxane, 333.15 K	0.388
in 2-butoxyethanol, 278.15 K	0.199
in 2-butoxyethanol, 283.15 K	0.208
in 2-butoxyethanol, 288.15 K	0.218
in 2-butoxyethanol, 293.15 K	0.231
in 2-butoxyethanol, 298.15 K	0.243
in 2-butoxyethanol, 303.15 K	0.258
in 2-butoxyethanol, 308.15 K	0.27
in 2-butoxyethanol, 313.15 K	0.283
in 2-butoxyethanol, 318.15 K	0.298
in 2-butoxyethanol, 323.15 K	0.317
in 2-butoxyethanol, 328.15 K	0.334
in 2-butoxyethanol, 333.15 K	0.355
in 2-ethoxyethanol, 278.15 K	0.305
in 2-ethoxyethanol, 283.15 K	0.317
in 2-ethoxyethanol, 288.15 K	0.327
in 2-ethoxyethanol, 293.15 K	0.339
in 2-ethoxyethanol, 298.15 K	0.35
in 2-ethoxyethanol, 303.15 K	0.363
in 2-ethoxyethanol, 308.15 K	0.378
in 2-ethoxyethanol, 313.15 K	0.391
in 2-ethoxyethanol, 318.15 K	0.404
in 2-ethoxyethanol, 323.15 K	0.42
in 2-ethoxyethanol, 328.15 K	0.439
in 2-ethoxyethanol, 333.15 K	0.454
in 2-methoxyethanol, 278.15 K	0.342
in 2-methoxyethanol, 283.15 K	0.348
in 2-methoxyethanol, 288.15 K	0.359
in 2-methoxyethanol, 293.15 K	0.371
in 2-methoxyethanol, 298.15 K	0.383
in 2-methoxyethanol, 303.15 K	0.397
in 2-methoxyethanol, 308.15 K	0.408
in 2-methoxyethanol, 313.15 K	0.425
in 2-methoxyethanol, 318.15 K	0.439
in 2-methoxyethanol, 323.15 K	0.453
in 2-methoxyethanol, 328.15 K	0.468
in 2-methoxyethanol, 333.15 K	0.483
in 2-propoxyethanol, 278.15 K	0.244
in 2-propoxyethanol, 283.15 K	0.257
in 2-propoxyethanol, 288.15 K	0.266
in 2-propoxyethanol, 293.15 K	0.28
in 2-propoxyethanol, 298.15 K	0.295
in 2-propoxyethanol, 303.15 K	0.307
in 2-propoxyethanol, 308.15 K	0.318
in 2-propoxyethanol, 313.15 K	0.336
in 2-propoxyethanol, 318.15 K	0.349
in 2-propoxyethanol, 323.15 K	0.368
in 2-propoxyethanol, 328.15 K	0.382
in 2-propoxyethanol, 333.15 K	0.401
in acetone, 273.15 K	0.0872
in acetone, 278.15 K	0.101
in acetone, 283.15 K	0.113
in acetone, 288.15 K	0.13
in acetone, 293.15 K	0.144
in acetone, 298.15 K	0.162
in acetone, 303.15 K	0.178
in acetone, 308.15 K	0.201
in acetone, 313.15 K	0.223
in acetone, 318.15 K	0.249
in ethanol, 278.15 K	0.288
in ethanol, 283.15 K	0.295
in ethanol, 288.15 K	0.305
in ethanol, 293.15 K	0.314
in ethanol, 298.15 K	0.326
in ethanol, 303.15 K	0.334
in ethanol, 308.15 K	0.347
in ethanol, 313.15 K	0.357
in ethanol, 318.15 K	0.371
in ethanol, 323.15 K	0.383
in ethanol, 328.15 K	0.394
in ethanol, 333.15 K	0.407
in isopropanol, 278.15 K	0.24
in isopropanol, 283.15 K	0.251
in isopropanol, 288.15 K	0.265
in isopropanol, 293.15 K	0.277
in isopropanol, 298.15 K	0.291
in isopropanol, 303.15 K	0.307
in isopropanol, 308.15 K	0.317
in isopropanol, 313.15 K	0.331
in isopropanol, 318.15 K	0.346
in isopropanol, 323.15 K	0.361
in isopropanol, 328.15 K	0.376
in isopropanol, 333.15 K	0.394
in methanol, 273.15 K	0.29
in methanol, 278.15 K	0.299
in methanol, 283.15 K	0.307
in methanol, 288.15 K	0.315
in methanol, 293.15 K	0.324
in methanol, 298.15 K	0.335
in methanol, 303.15 K	0.347
in methanol, 308.15 K	0.357
in methanol, 313.15 K	0.369
in methanol, 318.15 K	0.38
in n-butanol, 278.15 K	0.193
in n-butanol, 283.15 K	0.204
in n-butanol, 288.15 K	0.22
in n-butanol, 293.15 K	0.232
in n-butanol, 298.15 K	0.248
in n-butanol, 303.15 K	0.26
in n-butanol, 308.15 K	0.273
in n-butanol, 313.15 K	0.29
in n-butanol, 318.15 K	0.304
in n-butanol, 323.15 K	0.321
in n-butanol, 328.15 K	0.337
in n-butanol, 333.15 K	0.354
in n-heptanol, 278.15 K	0.122
in n-heptanol, 283.15 K	0.133
in n-heptanol, 288.15 K	0.143
in n-heptanol, 293.15 K	0.158
in n-heptanol, 298.15 K	0.17
in n-heptanol, 303.15 K	0.183
in n-heptanol, 308.15 K	0.196
in n-heptanol, 313.15 K	0.212
in n-heptanol, 318.15 K	0.227
in n-heptanol, 323.15 K	0.243
in n-heptanol, 328.15 K	0.26
in n-heptanol, 333.15 K	0.278
in n-hexanol, 278.15 K	0.134
in n-hexanol, 283.15 K	0.146
in n-hexanol, 288.15 K	0.159
in n-hexanol, 293.15 K	0.174
in n-hexanol, 298.15 K	0.188
in n-hexanol, 303.15 K	0.202
in n-hexanol, 308.15 K	0.218
in n-hexanol, 313.15 K	0.23
in n-hexanol, 318.15 K	0.245
in n-hexanol, 323.15 K	0.26
in n-hexanol, 328.15 K	0.278
in n-hexanol, 333.15 K	0.297
in n-octanol, 278.15 K	0.0997
in n-octanol, 283.15 K	0.11
in n-octanol, 288.15 K	0.123
in n-octanol, 293.15 K	0.134
in n-octanol, 298.15 K	0.147
in n-octanol, 303.15 K	0.161
in n-octanol, 308.15 K	0.177
in n-octanol, 313.15 K	0.189
in n-octanol, 318.15 K	0.202
in n-octanol, 323.15 K	0.218
in n-octanol, 328.15 K	0.234
in n-octanol, 333.15 K	0.252
in n-pentanol, 278.15 K	0.161
in n-pentanol, 283.15 K	0.175
in n-pentanol, 288.15 K	0.186
in n-pentanol, 293.15 K	0.199
in n-pentanol, 298.15 K	0.212
in n-pentanol, 303.15 K	0.226
in n-pentanol, 308.15 K	0.242
in n-pentanol, 313.15 K	0.258
in n-pentanol, 318.15 K	0.273
in n-pentanol, 323.15 K	0.287
in n-pentanol, 328.15 K	0.308
in n-pentanol, 333.15 K	0.323
in n-propanol, 278.15 K	0.236
in n-propanol, 283.15 K	0.248
in n-propanol, 288.15 K	0.262
in n-propanol, 293.15 K	0.271
in n-propanol, 298.15 K	0.286
in n-propanol, 303.15 K	0.296
in n-propanol, 308.15 K	0.311
in n-propanol, 313.15 K	0.321
in n-propanol, 318.15 K	0.332
in n-propanol, 323.15 K	0.347
in n-propanol, 328.15 K	0.361
in n-propanol, 333.15 K	0.375
